Earlier results, collected in US7972633B2, “Nutritional supplements for healthy memory and mental function” (Applied Cognitive Sciences, LLC, priority 2007, dated 2011).

Experiments:
[1] = tested on: healthy adults who have no evidence of cerebral dysfunction; conditions: two days' supplementation with 10, 20 or 40 mg daily, compared to placebo
[2] = tested on: patients with mild to moderate transient or permanent impairment of cognitive performance; conditions: 10 or 20 mg three times a day for 16 weeks, compared to placebo

For `CCOC(=O)C1=C[C@]2(CC)CCCN3CCc4c(n1c1ccccc41)[C@@H]32` [vinpocetine, Vinpocetine], the “ability to distinguish discrete sensory data, reaction time, short-term memory functions” value [1] is given as “significantly greater extent than placebo” and the “concentration, memory and severity of illness” value [2] is given as “significant improvements in concentration, memory, and reduced severity of illness”.
